# ChEMBL document CHEMBL1201862, “PubChem BioAssay data set” (2004)
#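 Protocol summary: plate cells (96-well), add compound at 5 concentrations, incubate 48 h, interpolate endpoints linearly. Here, GI50 denotes the concentration required for 50% inhibition of growth.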 Activity calls are given as the source filed them. Rule as the data show it: active = GI50 up to about 1.1 µM and inactive = higher.
# Columns and labels:
# Assay in all cases: DTP human tumour cell line panel, 48 h
# NCI-H522 = test system: NCI-H522
# A549 = test system: A549
# SNB-78 = test system: SNB-78
# HCT-15 = test system: HCT-15
# M19-MEL = test system: M19-MEL
# HT-29 = test system: HT-29
# OVCAR-5 = test system: OVCAR-5
# OVCAR-3 = test system: OVCAR-3
# DMS-273 = test system: DMS-273
# UACC-62 = test system: UACC-62
# SK-OV-3 = test system: SK-OV-3
# HOP-18 = test system: HOP-18
# HL-60 = test system: HL-60
# SW-620 = test system: SW-620
# NCI-H460 = test system: NCI-H460
# RXF 393 = test system: RXF 393
# XF498 = test system: XF498
# LXFL 529 = test system: LXFL 529
# UO-31 = test system: UO-31
# SF-539 = test system: SF-539
# KM12 = test system: KM12
# CAKI-1 = test system: CAKI-1
# HCC 2998 = test system: HCC 2998
# COLO 205 = test system: COLO 205
# OVCAR-4 = test system: OVCAR-4
# A498 = test system: A498
# SF-268 = test system: SF-268
# HOP-62 = test system: HOP-62
# DLD-1 = test system: DLD-1
# KM-20L2 = test system: KM-20L2
# UACC-257 = test system: UACC-257
# RXF 631 = test system: RXF 631
# OVCAR-8 = test system: OVCAR-8
# RPMI-8226 = test system: RPMI-8226
# IGROV-1 = test system: IGROV-1
# M14 = test system: M14
# TK-10 = test system: TK-10
# U-251 = test system: U-251
# CCRF-CEM = test system: CCRF-CEM
# SF-295 = test system: SF-295
# MOLT-4 = test system: MOLT-4
# NCI-H226 = test system: NCI-H226
# 786-0 = test system: 786-0
# SK-MEL-2 = test system: SK-MEL-2
# SK-MEL-28 = test system: SK-MEL-28
# EKVX = test system: EKVX
# Malme-3M = test system: Malme-3M
# SNB-19 = test system: SNB-19
# K562 = test system: K562
# SR = test system: SR
# SK-MEL-5 = test system: SK-MEL-5
# NCI-H23 = test system: NCI-H23
# SNB-75 = test system: SNB-75
# LOX IMVI = test system: LOX IMVI
# HOP-92 = test system: HOP-92
# ACHN = test system: ACHN
# HCT-116 = test system: HCT-116
# DMS-114 = test system: DMS-114
# SN12C = test system: SN12C
structure (smiles),measurement,setting,value
C=C1C(=O)OC2/C=C(\C)C(O)/C=C\C(C)(O)CC(OC(=O)/C(C)=C/C)C12 (configuration not stated),GI50,NCI-H522,12.8 µM (inactive)
same,GI50,A549,> 100 µM (inactive)
same,GI50,SNB-78,34.2 µM (inactive)
same,GI50,HCT-15,17.2 µM
same,GI50,M19-MEL,17.5 µM (inactive)
same,GI50,HT-29,33.1 µM (inactive)
same,GI50,OVCAR-5,> 100 µM (inactive)
same,GI50,OVCAR-3,9.93 µM (inactive)
same,GI50,DMS-273,16.7 µM (inactive)
same,GI50,UACC-62,17.1 µM (inactive)
same,GI50,SK-OV-3,> 100 µM (inactive)
same,GI50,HOP-18,> 74.8 µM (inactive)
same,GI50,HL-60,7.91 µM (inactive)
same,GI50,SW-620,17.3 µM (inactive)
same,GI50,NCI-H460,> 61 µM (inactive)
same,GI50,RXF 393,18 µM (inactive)
same,GI50,XF498,29.9 µM (inactive)
same,GI50,LXFL 529,15.3 µM (inactive)
same,GI50,UO-31,> 70.1 µM (inactive)
same,GI50,SF-539,14.1 µM (inactive)
same,GI50,KM12,40.6 µM (inactive)
same,GI50,CAKI-1,23.6 µM (inactive)
same,GI50,HCC 2998,> 100 µM (inactive)
same,GI50,COLO 205,15.3 µM (inactive)
same,GI50,OVCAR-4,44.6 µM (inactive)
same,GI50,A498,> 100 µM (inactive)
same,GI50,SF-268,76.9 µM (inactive)
same,GI50,HOP-62,> 100 µM (inactive)
same,GI50,DLD-1,13.2 µM (inactive)
same,GI50,KM-20L2,13.2 µM (inactive)
same,GI50,UACC-257,27.2 µM (inactive)
same,GI50,RXF 631,38.2 µM (inactive)
same,GI50,OVCAR-8,22.1 µM (inactive)
same,GI50,RPMI-8226,> 39.5 µM (inactive)
same,GI50,IGROV-1,> 100 µM (inactive)
same,GI50,M14,17.3 µM (inactive)
same,GI50,TK-10,> 48.4 µM (inactive)
same,GI50,U-251,> 67.8 µM (inactive)
same,GI50,CCRF-CEM,> 32.5 µM (inactive)
same,GI50,SF-295,> 100 µM (inactive)
same,GI50,MOLT-4,4.29 µM (inactive)
same,GI50,NCI-H226,> 100 µM (inactive)
same,GI50,786-0,20.8 µM (inactive)
same,GI50,SK-MEL-2,19.7 µM (inactive)
same,GI50,SK-MEL-28,18.3 µM (inactive)
same,GI50,EKVX,30.1 µM (inactive)
same,GI50,Malme-3M,21.4 µM (inactive)
same,GI50,SNB-19,> 39.6 µM (inactive)
same,GI50,K562,9.64 µM (inactive)
same,GI50,SR,11.7 µM (inactive)
same,GI50,SK-MEL-5,51.3 µM (inactive)
same,GI50,NCI-H23,39.8 µM (inactive)
same,GI50,SNB-75,> 100 µM (inactive)
same,GI50,LOX IMVI,16.2 µM (inactive)
same,GI50,HOP-92,29.2 µM (inactive)
same,GI50,ACHN,22.4 µM (inactive)
same,GI50,HCT-116,16.3 µM (inactive)
same,GI50,DMS-114,> 48 µM (inactive)
same,GI50,SN12C,22 µM (inactive)
CCOC(=O)C1=C(NC(C)(C)C)OC/C1=N\NC(=O)Cc1ccccc1,GI50,NCI-H522,> 100 µM (inactive)
same,GI50,A549,> 100 µM (inactive)
same,GI50,SNB-78,> 100 µM (inactive)
same,GI50,HCT-15,> 100 µM
same,GI50,M19-MEL,> 100 µM (inactive)
same,GI50,HT-29,> 100 µM (inactive)
same,GI50,OVCAR-5,> 100 µM (inactive)
same,GI50,OVCAR-3,> 100 µM (inactive)
same,GI50,DMS-273,> 100 µM (inactive)
same,GI50,UACC-62,> 100 µM (inactive)
same,GI50,SK-OV-3,> 100 µM (inactive)
same,GI50,HOP-18,> 100 µM (inactive)
same,GI50,HL-60,> 100 µM (inactive)
same,GI50,SW-620,> 100 µM (inactive)
same,GI50,NCI-H460,> 100 µM (inactive)
same,GI50,RXF 393,> 100 µM (inactive)
same,GI50,XF498,> 100 µM (inactive)
same,GI50,LXFL 529,> 100 µM (inactive)
same,GI50,UO-31,> 100 µM (inactive)
same,GI50,SF-539,> 100 µM (inactive)
same,GI50,KM12,> 100 µM (inactive)
same,GI50,CAKI-1,> 100 µM (inactive)
same,GI50,HCC 2998,> 100 µM (inactive)
same,GI50,COLO 205,> 100 µM (inactive)
same,GI50,OVCAR-4,> 100 µM (inactive)
same,GI50,A498,> 100 µM (inactive)
same,GI50,SF-268,> 100 µM (inactive)
same,GI50,HOP-62,> 100 µM (inactive)
same,GI50,DLD-1,> 100 µM (inactive)
same,GI50,KM-20L2,> 100 µM (inactive)
same,GI50,UACC-257,> 100 µM (inactive)
same,GI50,RXF 631,> 100 µM (inactive)
same,GI50,OVCAR-8,> 100 µM (inactive)
same,GI50,IGROV-1,> 100 µM (inactive)
same,GI50,M14,> 100 µM (inactive)
same,GI50,TK-10,> 100 µM (inactive)
same,GI50,U-251,> 100 µM (inactive)
same,GI50,CCRF-CEM,> 100 µM (inactive)
same,GI50,SF-295,> 100 µM (inactive)
same,GI50,MOLT-4,> 100 µM (inactive)
same,GI50,NCI-H226,> 100 µM (inactive)
same,GI50,786-0,> 100 µM (inactive)
same,GI50,SK-MEL-2,> 100 µM (inactive)
same,GI50,SK-MEL-28,> 100 µM (inactive)
same,GI50,EKVX,> 100 µM (inactive)
same,GI50,Malme-3M,> 100 µM (inactive)
same,GI50,SNB-19,> 100 µM (inactive)
same,GI50,K562,> 100 µM (inactive)
same,GI50,SR,> 100 µM (inactive)
same,GI50,SK-MEL-5,> 100 µM (inactive)
same,GI50,NCI-H23,> 100 µM (inactive)
same,GI50,SNB-75,27.9 µM (inactive)
same,GI50,LOX IMVI,> 100 µM (inactive)
same,GI50,HOP-92,> 100 µM (inactive)
same,GI50,ACHN,> 100 µM (inactive)
same,GI50,HCT-116,> 100 µM (inactive)
same,GI50,DMS-114,> 100 µM (inactive)
same,GI50,SN12C,> 100 µM (inactive)
